Test results: PMC8715119, “Second-generation non-hematopoietic erythropoietin-derived peptide for neuroprotection” (Redox Biology, 2021)

Key:
JAK2 = experiment: Time-series immunoblot of phosphorylated JAK2; format: cell-based, rat; conditions: undifferentiated PC12 cells; 1 nM; up to 90 min; normalized by JAK2; n = 3
Description: (§1) PC12 or HT-22 cells were lysed in 100 mM Tris-Cl (pH 6.8) with 4% SDS. The lysates were loaded onto sodium dodecyl sulfate-polyacrylamide gel electrophoresis (SDS-PAGE) (8–10%), and the proteins were transferred onto the nitrocellulose membrane. The membrane was blocked with 0.1% TBST and 5% non-fat dry milk at 25°C for 30 min. Primary antibodies were diluted in 0.1% TBST and 3% bovine serum albumin (BSA). The primary antibodies included anti-pJAK2 (#3776, Cell Signaling Technology, USA), anti-JAK2 (#3230, Cell Signaling Technology, USA), anti-pSTAT5 (#9351, Cell Signaling Technology, USA), anti-STAT5 ([…], Cell Signaling Technology, USA), anti-pAKT (#9271, Cell Signaling Technology, USA), anti-AKT (#9272, Cell Signaling Technology, USA), anti-pERK (#9101, Cell Signaling Technology, USA) anti-ERK (#9102, Cell Signaling Technology, USA), anti-EPOR (#sc-365662, Santa Cruz Biotechnology, USA), anti-β-Actin (Santa Cruz Biotechnology, USA), anti-Bax (Santa Cruz Biotechnology, USA), anti-cleaved Casp3 (Cell Signaling Technology, USA), and anti-cleaved Parp1 (Cell Signaling Technology, USA).

[1] = tested on: rat primary cortical neurons; experiment: Viability (Calcein-AM) under glutamate-induced excitotoxicity; format: cell-based; conditions: glutamate (30 μM) for 24 h, reEPO 0.5 IU/ml, peptides 1 ng/ml, n = 3, Fig. 4e
Description: On the embryonic day 17, embryonic cerebral cortices were dissected from pregnant Sprague–Dawley rats. The cerebral cortices were treated with 0.25% trypsin-EDTA (#25200056, Gibco, USA) and then mechanically dissociated into single cells by pipetting. The dissociated cells were plated on 96-well plates coated by 50 μg/ml poly-L-lysine (P8920, Sigma-Aldrich, USA) at a density of 2.5 × 10^4 cells per well. They were incubated in neurobasal medium (#21103049, Gibco, USA) containing 2% B27 supplement (#17504044, Gibco, USA), 0.5 mM L-glutamine (#15430614, Gibco, USA), 25 μM glutamic acid (#G1251, Sigma-Aldrich, USA), and 1% penicillin/streptomycin (#15140122, Gibco, USA) at 37°C with 5% CO2. The medium was changed to a fresh medium without glutamate every 3–4 days, and on day 10, glutamic acid (30 μM) was added to induce excitotoxicity in the cells treated with or without reEPO and peptides.
To measure the viability of rat primary cortical neurons, we used Calcein-AM (#C3100MP, Invitrogen, USA). Cultured rat cortical neurons plated on 96-well plates (2.5 × 10^4 cells per well) were incubated with Calcein-AM (3 μM) for 30 min after various treatments. The intensity of the Calcein-AM signal (excitation, 485 nm; detection 535 nm) was measured by using a micro plate reader (VersaMax, Molecular Devices, USA).

HT-22 cells = experiment: Cell viability after hypoxia and re-oxygenation; format: cell-based, mouse; conditions: hypoxia 18 h, re-oxygenation 3 h, treatment 19 h; reEPO 0.5 IU/ml, ML1-h3 1 ng/ml; n = 12
Description: HT-22 cells (kindly provided by Prof. Gil-Saeng Jeong in Keimyung University), an immortalized mouse hippocampal cell line, were cultured at 37°C and 5% CO2 in Dulbecco's modified eagle medium (DMEM, Invitrogen, USA) supplemented with 10% FBS and 1% penicillin/streptomycin at 37°C and 5% CO2.
Cell viability was evaluated by 3-[(4,5-dimethylthiazol-2-yl)-5,3-carboxymethoxyphenyl]-2-(4-sulfophenyl)-2H tetrazolium, inner salt (MTS) reduction assay (CellTiter 96 Aqueous One Solution Cell Proliferation Assay, Promega, Madison, WI, USA). Briefly, differentiated neuronal-PC12 cells were treated with H2O2 (300 μM) with or without reEPO and peptides for 24 h. The PC12 cells were washed with PBS; 20 ul MTS solution was added to each well with 100 μl PBS, and the cells were incubated for 3 h at 37°C and 5% CO2. The intracellular soluble formazan produced by cellular reduction of the MTS was determined by recording the absorbance at 490 nm using a microplate reader (VersaMax, Molecular Devices, USA). Cell proliferation was also evaluated by the MTS assay. Undifferentiated PC12 cells were seeded into a 96-well plate (5x10^4 cells/well). The next day, the initial cell number was counted; after 48 h, under low FBS concentration (0.5%), with or without reEPO and peptides, cell number was measured by the MTS assay.
The HT-22 cells were seeded onto 96-well or 6-well plates. […]

cleaved Parp1 = experiment: Immunoblot of cleaved Parp1 after hypoxia and re-oxygenation; format: cell-based, mouse; conditions: HT-22 cells; reEPO 0.5 IU/ml, ML1-h3 1 ng/ml; normalized by β-Actin; n = 6
Description: as §1
The HT-22 cells were seeded onto 96-well or 6-well plates. The next day, HT-22 cells were placed inside a sealed air-tight container consisting of an anaeropack (Mitsubishi Gas Company, Tokyo, Japan), which can induce a hypoxic atmosphere by absorbing oxygen and generating carbon dioxide. […]

[2] = tested on: differentiated neuronal PC12 cells; experiment: Cellular ROS level by H2DCFDA under H2O2; format: cell-based, rat; conditions: H2O2 for 6 h; H2DCFDA staining; n = 5; Fig. 4b
Description: PC12 cells (#CRL-1721, ATCC, USA), a rat pheochromocytoma cell line derived from the adrenal medulla (#CRL-1721, ATCC, USA), were seeded on a dish, which was coated by poly L-lysine (0.01%; Sigma Chemical Co., USA), and grown in RPMI 1640 medium (#11875093, Gibco, USA), supplemented with 10% heat-inactivated horse serum (#26050088, Gibco, USA), 5% fetal bovine serum (FBS) (#SH30919.03, Hyclone, USA), and 1% penicillin/streptomycin at 37°C with 5% CO2. For neuronal differentiation, PC12 cells were plated at a density of 1.25x10^3 cell/cm^2 into 96-well plates coated with collagen 1 (#354236, BD Biosciences, USA) and grown in RPMI 1640 medium supplemented with 50 ng/ml nerve growth factor (NGF) (BD Biosciences, USA) and 0.5% FBS for 10 days. The NGF-supplemented media was replaced with fresh media every 3 days during neuronal differentiation.
The cellular ROS level was measured using 2′,7′-dichlorodihydrofluorescein diacetate (H2DCFDA) (#D399, Invitrogen, USA). The cells were incubated with 5 μM H2DCFDA in PBS for 30 min, washed with PBS, and then resuspended in the medium for 2 h. After treatment of H2O2 without or with reEPO, or peptide, we monitored the oxidative stress by measuring the fluorescence intensities of H2DCFDA by using excitation and emission wavelengths of 485 nm and 535 nm, respectively.

For “reEPO: Recombinant human EPO (Epoetin-α, CJ HealthCare Corporation)”, the “Level of phosphorylated JAK2 (pJAK2) over time” value (JAK2) was “upregulated the level of phosphorylated JAK2 in ^1007/1008Tyr (pJAK2), an active form of JAK2 at 30–60 min; pJAK2 returned to the basal level at 90 min”, the “Neuroprotective effect against glutamate-induced excitotoxicity (viability)” value [1] was “showed a neuroprotective effect against glutamate-induced excitotoxicity” and the “Cell viability under H/R” value (HT-22 cells) was “suppressed the loss of cell viability”. The “Level of cleaved Parp1 under H/R” value (cleaved Parp1) was “efficiently reduced the levels of Bax, cleaved Caspase 3, and cleaved Parp1” and the “Level of reactive oxygen species (ROS) induced by H2O2” value [2] was “decreased the levels of reactive oxygen species (ROS)”.
